What was measured:
[1] = Solubility in oil of the dosing preparation (compound in Crisco); type: physicochemical; conditions: appearance in oil, in parentheses after compound number
Source text: The dogs are fed immediately thereafter.

[2] = Pharmacokinetic screening in dogs, oral administration, plasma LC-MS/MS; conditions: dogs, single oral dose (0.3 mg/kg per FIG. 1); for LC/MS analysis, plasma level at time 0: time 0 min; for LC/MS analysis, plasma level at time 15: time 15 min; for LC/MS analysis, plasma level at time 30: time 30 min; for LC/MS analysis, plasma level at time 60: time 60 min; for LC/MS analysis, plasma level at time 120: time 120 min; for LC/MS analysis, plasma level at time 180: time 180 min; for LC/MS analysis, plasma level at time 240: time 240 min; for LC/MS analysis, plasma level at time 300: time 300 min; for LC/MS analysis, plasma level at time 360: time 360 min; for LC/MS analysis, plasma level at time 480: time 480 min; for LC/MS analysis, plasma level at time 1440: time 1440 min
human sEH = human sEH (Homo sapiens (Human), UniProt P34913); assay: Inhibition of human soluble epoxide hydrolase (IC50; one of three substrate methods); type: biochemical; conditions: recombinant human sEH;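 note: enzyme expressed in baculovirus and affinity-purified, assays run in triplicate, with substrate and read-out differing among the three methods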
Sequence of human sEH (P34913 whole entry): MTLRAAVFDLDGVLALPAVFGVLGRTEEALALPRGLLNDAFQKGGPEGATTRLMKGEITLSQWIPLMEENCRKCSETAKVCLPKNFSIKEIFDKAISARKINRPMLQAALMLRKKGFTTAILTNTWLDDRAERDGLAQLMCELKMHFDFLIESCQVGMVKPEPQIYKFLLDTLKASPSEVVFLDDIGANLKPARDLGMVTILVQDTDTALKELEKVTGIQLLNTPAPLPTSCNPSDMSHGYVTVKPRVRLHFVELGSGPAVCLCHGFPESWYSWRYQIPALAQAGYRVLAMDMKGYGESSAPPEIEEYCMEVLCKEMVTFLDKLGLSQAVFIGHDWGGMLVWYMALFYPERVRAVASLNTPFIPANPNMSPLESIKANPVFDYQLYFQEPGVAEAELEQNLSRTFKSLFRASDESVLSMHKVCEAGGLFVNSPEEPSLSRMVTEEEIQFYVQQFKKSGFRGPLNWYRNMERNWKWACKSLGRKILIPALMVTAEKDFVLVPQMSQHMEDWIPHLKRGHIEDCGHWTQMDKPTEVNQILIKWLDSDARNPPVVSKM

| Compound | solubility in oil [1] | LC/MS analysis, plasma level at time 0 [2] | LC/MS analysis, plasma level at time 15 [2] | LC/MS analysis, plasma level at time 30 [2] | LC/MS analysis, plasma level at time 60 [2] | LC/MS analysis, plasma level at time 120 [2] | LC/MS analysis, plasma level at time 180 [2] | LC/MS analysis, plasma level at time 240 [2] | LC/MS analysis, plasma level at time 300 [2] | LC/MS analysis, plasma level at time 360 [2] | LC/MS analysis, plasma level at time 480 [2] | LC/MS analysis, plasma level at time 1440 [2] | IC50 (human sEH) [nM] |
| --- | --- | --- | --- | --- | --- | --- | --- | --- | --- | --- | --- | --- | --- |
| COC(=O)c1ccc(C(=O)N2CCC(NC(=O)NC34CC5CC(CC(C5)C3)C4)CC2)cc1 [Compound 1204, 4-[4-(3-Adamantan-1-yl-ureido)-piperidine-1-carbonyl]-benzoic acid methyl ester] | 1204 (Opaque) | 0.00 | 0.00 | 0.19 | 0.34 | 0.11 | 0.00 | 0.00 | 0.00 | 0.00 | 0.00 | 0.00 | 1.1 |
| COC(=O)CCCC(=O)N1CCC(NC(=O)NC23CC4CC(CC(C4)C2)C3)CC1 [Compound 1206, 5-[4-(3-Adamantan-1-yl-ureido)-piperidin-1-yl]-5-oxo-pentanoic acid methyl ester] | 1206 (Opaque) | 0.00 | 0.00 | 0.00 | 0.00 | 0.00 | 0.00 | 0.00 | 0.00 | 0.00 | 0.00 | 0.00 | 2.7 |

From patent US8501783B2, “Conformationally restricted urea inhibitors of soluble epoxide hydrolase” (The Regents of the University of California, priority 2006, dated 2013)
